Reference: article PMC12631437, “Evaluation of the Activity of 4‑Quinolones against Multi-Life Stages of Plasmodium spp” (ACS Omega, 2025)
In brackets after ≈: the same amount, converted by molar mass. Like-named read-outs stand apart in the source and are kept apart here.

Experiments:
[1] = tested on: Plasmodium falciparum 3D7 sensitive strain; assay: SYBR Green growth assay, asexual blood stages, 3D7 sensitive strain; assay type: cell-based
Procedure: (§1) Parasite strains SB1-A6, 7G8, V1/S, and HB3 were acquired from BEI-MR4, while the ATQ R1 strain, carrying a V259L gene mutation, was generated in-house. […] Parasitemia was monitored using Giemsa-stained blood smears.
(§2) Bioassays were conducted with synchronized ring-stage parasites using sorbitol synchronization. Antimalarial compounds were evaluated in 96-well plates, and parasite growth was assessed using a SYBR Green-based fluorescence assay The assays were conducted when the parasite quantity reached at least 70% of the ring stage. Compounds were initially added at specific concentrations in the first wells, followed by serial dilution (1:2) ranging from 20 μM to 0.009 μM. Subsequently, a solution containing parasites in RPMI medium at a hematocrit of 2% was added to each well, and the parasites were then incubated for 72 h.
(§3) The IC50 values were determined using concentration–response curves generated in GraphPad 8 software. Additionally, the resistance index was calculated by comparing IC50 values obtained for the sensitive 3D7 strain with those of the resistant strains.

[2] = tested on: late-stage gametocytes (IV and V) of P. falciparum NF54; assay: Late-stage gametocyte bioluminescence assay, luciferase-expressing NF54; assay type: cell-based, Plasmodium falciparum; conditions: for Pf gametocytes inhibition: 1 μM
Procedure: For the in vitro culture of sexual stages of P. falciparum NF54 Luminescent strain, the Tripathi protocol was followed.
Parasite asexual stages were synchronized, and ring-stage parasites were incubated with a parasite-conditioned medium to induce stress and trigger gametocyte induction. After sexually committed parasites invaded new erythrocytes, N-acetylglucosamine was added to prevent further invasion and clear residual asexual parasites.
When a predominance of late stage (IV and V) gametocytes was identified and counted together, , the MACS magnetic system was used for gametocyte enrichment, as previously described. ,
The column content was eluted with RPMI medium into a 15 mL Falcon tube until translucent medium appeared, yielding ∼ 10 mL of eluate. The sample was centrifuged at 1500 rpm for 5 min at 37 °C, the supernatant discarded, and the pellet washed with preheated RPMI medium containing albumax. A 1 μL pellet sample was used to prepare a Giemsa-stained smear for gametocytaemia determination by counting 2000 cells. The gametocytemia for each assay were 71%, 64% and 31%. The remaining pellet was adjusted to 1 mL with RPMI medium containing 10% human serum at 37 °C. Total cell counts were performed using a Neubauer chamber with a 10X diluted sample.
Each well contained 200,000 gametocytes in 150 μL without erythrocytes. After 48 h of incubation, a luciferase kit (Promega) was used to reveal the assay. Eighty microliters of supernatant were discarded, and the pellet was homogenized in the remaining content. Forty microliters of the sample were transferred to a clear 96-well plate containing lysis solution (1X), gently mixed, and moved to a white-bottomed 96-well plate. Luciferase (40 μL) was added, and luminescence was measured using a microplate reader with a 10-s integration time.

[3] = tested on: P. berghei hepatic stages; assay: Hepatic stage bioluminescence assay, Huh-7 cells infected with luciferase-expressing sporozoites; assay type: cell-based, Plasmodium berghei; conditions: read-out: IC50 (μM) Pb liver stages
Procedure: (§4) Huh-7 cells were cultured in RPMI 1640 medium (Sigma) supplemented with 10% v/v fetal bovine serum (FBS), 1% v/v penicillin/streptomycin, 1% v/v glutamine, 1% v/v nonessential amino acids, and 10 mM HEPES, pH 7. For compound dilution, a medium containing 1:1000 gentamicin (G) and 1:300 fungizone (F) was used. Cells were seeded at 1 × 10^4 cells/well in 96-well plates and incubated at 37 °C with 5% CO2. After 24 h, compounds were diluted in RPMI+F+G, and after removal of the culture medium, added to the cells in triplicate. DMSO and atovaquone were used as negative and positive controls, respectively. Following incubation for 1 h at 37 °C, 5% CO2, the cells were infected with luciferase-expressing P. berghei sporozoites (4,000 parasites per well) freshly extracted from the salivary glands of infected mosquitoes reared at the GIMM insectarium. The viability of Huh-7 cells exposed to the compounds was assessed 46 h later by the AlamarBlue assay (Invitrogen, UK) measurement, and parasite burden was measured 48 h after sporozoite addition using a bioluminescence assay (Biotium). IC50 values were calculated using GraphPad Prism through nonlinear regression analysis of normalized dose–response curves.

P. falciparum HB3 strain = assay: SYBR Green growth assay, asexual blood stages, HB3 strain; assay type: cell-based, Plasmodium falciparum; conditions: Plasmodium falciparum
Procedure: as §1, §2, §3

[4] = tested on: P. falciparum V1/S strain; assay: microbe, parasite or virus in culture; assay type: cell-based, Plasmodium falciparum; conditions: Plasmodium falciparum, 72 h
Procedure: (§5) Healthy blood samples for parasite culture were obtained from voluntary donors (approved under protocol #28176720.9.0000.0011), processed to remove white blood cells, and stored at 2 °C–8 °C for up to 15 days. Parasite strains SB1-A6, 7G8, V1/S, and HB3 were acquired from BEI-MR4, while the ATQ R1 strain, carrying a V259L gene mutation, was generated in-house. Infected erythrocytes were cultured in RPMI 1640 medium supplemented with Hepes, sodium bicarbonate, glucose, Albumax, and gentamicin, […], and incubated in a 5% CO2, 5% O2, and 90% N2 gas mixture at 37 °C with daily medium changes. Parasitemia was monitored using Giemsa-stained blood smears.
as §2
(§6) To assess parasite growth, the culture medium was replaced with a lysis solution (Trisbase: 49.31%, EDTA: 30.00%, Saponin: 0.16%, Triton: 0.02%) containing the fluorescent dye SYBR Green (Sigma). After a 30 min incubation, fluorescence readings were taken to determine the 50% inhibitory concentration (IC50) of parasite growth. The IC50 values were determined using concentration–response curves generated in GraphPad 8 software. Additionally, the resistance index was calculated by comparing IC50 values obtained for the sensitive 3D7 strain with those of the resistant strains.

P. falciparum 7G8 strain = assay: SYBR Green growth assay, asexual blood stages, 7G8 strain; assay type: cell-based, Plasmodium falciparum; conditions: Plasmodium falciparum
Procedure: as §5, §2, §6

[5] = tested on: P. falciparum DHODH strain; assay: SYBR Green growth assay, asexual blood stages, DHODH resistant mutant; assay type: cell-based, Plasmodium falciparum; conditions: Plasmodium falciparum, 72 h
Procedure: as §5, §2, §6

[6] = tested on: P. falciparum hepatic stages; conditions: cited from earlier work
[7] = tested on: P. berghei exflagellation centers; assay: Ex vivo exflagellation assay, blood of P. berghei infected mice; assay type: cell-based, Plasmodium berghei; conditions: 5 μM, 15 min incubation
Procedure: For the ex vivo assays, a female CD1 mouse between 4 and 5 weeks of age (n = 3) was infected with P. berghei. After 4 days, when the presence of parasites (sexual phases) in the blood was observed by Giemsa-stained blood smear microscopy, the total blood from the mouse was collected into a preheated tube at 37 °C containing RPMI medium supplemented with 20% Fetal Bovine Serum (FBS) and 200 units/mL of heparin as an anticoagulant. The tube was maintained at 37 °C and centrifuged at 1500 rpm for 5 min. The supernatant was discarded, and the blood was resuspended in 20 mL of RPMI medium supplemented with 20% FBS.
One milliliter of resuspended blood was added to each well of a 6-well plate containing 5 μM methylene blue (positive control), test compound 1 at 10 μM and 1 μM, and DMSO (negative control). After 15 min, the wells were homogenized, and 10 μL of the content was collected into an Eppendorf tube and incubated at room temperature for another 15 min. The sample was then transferred to a Neubauer chamber, and exflagellation centers were counted using an optical microscope at 40× magnification.

[8] = tested on: P. berghei sexual phases in An. stephensi; assay: In vivo transmission-blocking assay, P. berghei infected CD1 mice, An. stephensi; parameters: species or system Plasmodium berghei; conditions: positive control, 25 mg/kg x 2/12h
Procedure: For this assay, a colony of An. stephensi was used. The lab-reared An. stephensi was kept under controlled conditions, with a temperature of 26 °C ± 1 °C, a 12/12 h light/dark cycle, a relative humidity of 70% ± 10%, and fed a 30% sugar solution as needed.
Female CD1 mice (4 to 6 weeks old) were infected by intraperitoneal inoculation (i.p.) containing 10 million erythrocytes infected with P. berghei expressing the GFP fluorescent protein. After 4 days, when parasites in the sexual stages were detected via Giemsa-stained blood smears, mice with similar gametocytemia and parasitemia were randomly divided into three groups of two animals each. The groups of two mices were treated orally with compound 1 at two doses of 50 mg/kg, spaced 12 h apart. […] Following the second dose, mice were anesthetized and placed in individual cages containing approximately 50 female A. stephensi mosquitoes, which had been starved for 24 h before the assay. Blood feeding lasted for 30 min, after which unfed mosquitoes were removed. Engorged females were maintained in an insectary at 21 ± 1 °C and 60% relative humidity, receiving a 30% glucose solution.
A group of 10 mosquitoes was set aside to assess sporozoite development in salivary glands, following a protocol similar to the one described previously, with dissections performed 21 days postblood meal. Additionally, 10 μL of mouse blood was collected immediately after treatment with the compounds and incubated at room temperature for 15 min. Exflagellation was observed under optical microscopy to evaluate the effect of 4-quinolone-derived molecules on microgametocyte activity.

Huh-7 cells = assay: Alamar Blue cell confluency (cytotoxicity) in Huh-7 cells; assay type: cell-based
Procedure: as §4, with “For” for “Huh-7 cells were cultured in RPMI 1640 medium (Sigma) supplemented with 10% v/v fetal bovine serum (FBS), 1% v/v penicillin/streptomycin, 1% v/v glutamine, 1% v/v nonessential amino acids, and 10 mM HEPES, pH 7. For”, “DMSO and atovaquone were used as negative and positive controls, respectively.” left out
On the first day of the assay, the compounds were diluted at 10 and 1 μM in cRPMI medium supplemented with fungizone. and gentamicin. The culture medium of Huh-7 cells was removed and replaced with compound dilutions in triplicate. As a control, a DMSO dilution mimicking the highest compound concentration used was included. The cells were incubated for 1 h at 37 °C in a 5% CO2 atmosphere.
On the second day of the assay, compound toxicity was assessed by measuring cell confluency using the Alamar Blue/CellTiter Blue reagent. First, reagent aliquots stored at −20 °C were thawed and diluted at a 1:20 ratio in cRPMI. The culture medium was removed and replaced with 80 μL of the solution per well, followed by incubation at 37 °C and 5% CO2 for 1 h and 30 min. Fluorescence was measured using a plate reader with the Tecan i-Control software.

[9] = tested on: P. falciparum ATQ_R1 strain; assay: SYBR Green growth assay, asexual blood stages, ATQ_R1 strain; assay type: cell-based, Plasmodium falciparum; conditions: Plasmodium falciparum, 72 h
Procedure: as §5, §2, §6

[10] = tested on: P. falciparum oocyst development; parameters: method as in PMID 12878530, PMID 17361016; conditions: studies primarily focused on P. falciparum; ref 27;28; cited from earlier work
[11] = Plasmodium falciparum, 3D7, 72 h
[12] = Plasmodium falciparum, 3D7, 72 h, asexual blood stages, 3D7 sensitive strain, 72 h, read-out: IC50

2-(4-Chlorophenyl)-6-morpholinoquinolin-4(1H)-one [compound 3]
IC50 ([1]; asexual blood stages, 3D7 sensitive strain, 72 h, read-out: IC50): 2900 nM
Pf gametocytes inhibition [2]: no activity
IC50 ([3]; Huh-7 cells, 48 h after sporozoite addition): 0.64 ± 0.04 µM

CCN(CC)CCCC(C)Nc1ccnc2cc(Cl)ccc12 (centres unmarked) [Chloroquine, reference compound]
IC50 [1, 11]: 6 ± 1 nM
IC50 (P. falciparum HB3 strain; HB3, 72 h): 6 ± 2 nM
IC50 [4]: 170 ± 90 nM
IC50 (P. falciparum 7G8 strain; 7G8, 72 h): 220 ± 80 nM

Cc1cc(Nc2ccc(S(F)(F)(F)(F)F)cc2)n2nc(C(C)(F)F)nc2n1 [DSM 265, reference compound]
IC50 [5]: > 10000 nM

Cc1c(F)c(N2CCNC(C)C2)cc2c1c(=O)c(C(=O)O)cn2C1CC1 (centres unmarked) [Grepafloxacin]
IC50 P. falciparum hepatic stages [6]: 5.0 ± 0.2 µg/mL (≈ 13.9 µM)

CN(C)c1ccc2nc3ccc(=[N+](C)C)cc-3sc2c1 [MB, Methylene blue, reference compound]
inhibition of exflagellation centers (ex vivo) [7]: completely inhibited
inhibition at 5 µM ([7]; Plasmodium berghei, 0.25 h): 100%
inhibition at 5 µM ([2]; Plasmodium falciparum, NF54, 48 h, control at 5 μM, 48 h, read-out: Pf gametocytes Inhibition (%)): 100%

COc1cc(NC(C)CCCN)c2ncccc2c1 (centres unmarked) [Primaquine, reference compound]
inhibition of P. berghei oocysts (in vivo) [8]: 100%
Confluency % (Huh-7 cells; 1 μM): 109 ± 10%
Confluency % (Huh-7 cells; 10 μM): 104.0 ± 0.2%

CCc1nc(N)nc(N)c1-c1ccc(Cl)cc1 [Pyrimethamine, reference compound]
IC50 [1, 12]: 50 ± 8 nM
IC50 [9]: > 10000 nM
IC50 (P. falciparum HB3 strain; HB3 strain, 72 h, read-out: IC50): 5200 ± 400 nM
IC50 [4]: 6000 ± 2400 nM
IC50 (P. falciparum 7G8 strain; 7G8 strain, 72 h, read-out: IC50): 6000 ± 1000 nM

Cc1ccc(-c2cc(O)c3ccccc3n2)cc1 [compound 2, 2-p-Tolylquinolin-4(1H)-one]
IC50 [1, 12]: 11000 nM
IC50 ([3]; Plasmodium berghei, Huh-7 cells, 48 h after sporozoite addition): 1.3 ± 0.2 µM
Confluency % (Huh-7 cells; 1 μM): 163 ± 14%
Confluency % (Huh-7 cells; 10 μM): 104 ± 4%

O=c1cc(-c2ccc(N3CCOCC3)cc2)[nH]c2ccccc12 [compound 4, 2-(4-Morfolinofenil)-quinolin-4(1H)-one]
IC50 [1, 12]: > 10000 nM
Pf gametocytes inhibition [2]: no activity

CCCCCCCc1cc(O)c2ccccc2n1 [compound 5, 2-Heptylquinolin-4(1H)-one]
IC50 [1, 11]: 1000 ± 200 nM
Pf gametocytes inhibition [2]: no activity
inhibition at 20 µM ([2]; Plasmodium falciparum, NF54, 48 h, read-out: Pf gametocytes Inhibition (%)): 25 ± 4%
IC50 ([3]; Plasmodium berghei, Huh-7, 48 h): 0.3 ± 0.01 µM
Confluency % (Huh-7 cells; 1 μM): 100 ± 1%
Confluency % (Huh-7 cells; 10 μM): 147 ± 3%

CCCCN(CCCC)CCC(O)c1cc2c(Cl)cc(Cl)cc2c2cc(C(F)(F)F)ccc12 (centres unmarked) [halofantrine]
concentration required to inhibit oocyst development [10]: around 10 μM

CCCCN(CCCC)CC(O)c1cc(Cl)cc2c1-c1ccc(Cl)cc1/C2=C/c1ccc(Cl)cc1 (centres unmarked) [lumefantrine]
concentration required to inhibit oocyst development [10]: around 10 μM

OC(c1cc(C(F)(F)F)nc2c(C(F)(F)F)cccc12)C1CCCCN1 (centres unmarked) [mefloquine]
concentration required to inhibit oocyst development [10]: around 10 μM
